Results on 1 compound are retold here after patent US20200276181A1, “THIENOISOQUINOLINES AND THEIR DERIVATIVES FOR TARGETING TUBULIN, CH-TOG, AURORA A KINASE, TPX2, CDK5RAP2 AND/OR ASPM” (VALORBEC, SEC, priority 2017, published 2020).

One test deals with A549 cells. In words: Spindle phenotypes, fixed cells stained for γ-tubulin and ACA. Format: cell-based, human. The conditions noted are these: 300 nM for 4 hours. An excerpt:
(§1) For each condition, 20,000 cells were counted per replicate (N=3). Line graphs (right) were made to better illustrate the relative changes in the cell cycle phases for the different treatments. Bars show standard deviation. The asterisks indicate the first statistically significant change in the G0/G1 and G2/M populations determined by a two-way ANOVA with a post-hoc Tukey's multiple comparisons test using 95% confidence intervals. FIG. 2B) is a line graph showing the percentage of HCT116 (p53−/−) cells, A549 cells, HeLa cells and H1299 cells in mitosis after treatment with various concentrations of C75 for one population doubling time. All of the cell lines show an increase in the proportion of mitotic cells after treatment with 200 nM C75. The bars indicate standard deviation. […] While the mitotic spindles were not dramatically altered by C75 in HFF1 cells, they were monopolar (as shown) or fragmented in the other cell types. […] The mitotic spindles were more strongly fragmented after C75 treatment in these cells vs. the cells in FIG. 2C). FIG. 2E) are images showing fixed HFF1, HeLa, A549 and HCT 116 cells co-stained for γ-tubulin (spindle poles; white) and ACA (centromeres; light grey) 4 hours after treatment with 300 nM C87 (control) or 300 nM C75. Cartoon schematics show examples of the different spindle phenotypes, including bipolar with aligned chromosomes (top), bipolar with misaligned chromosomes (upper middle), multipolar/fragmented (lower middle), or monopolar (bottom), and the proportion of that phenotype is shown in the top right corner of each image. FIG. 2F) is a bar graph showing the proportion of the different spindle phenotypes for HFF1, HeLa, A549 and HCT 116 cells treated as in FIG. 2E) (n=1355; N=3). Bars show standard deviation. […] While mitotic spindles recovered bipolarity after removing nocodazole, they remained multipolar after removing C75. […] FIG. 2J) is a bar graph showing the proportion of cells with monopolar (black), bipolar (dark grey) or multipolar (light grey) spindles. Bars show standard deviation. FIG. 2K) is a series of time-lapse images of a live HeLa cell expressing GFP:tubulin after treatment with C75 as shown in 2G). […] Drugs were not washed out. […]
(§2) C75 was also tested for efficacy in different cancer cell lines. […] To further assess the role of C75 in disrupting spindles, HeLa cells were treated with 300 nM C75 for 4 hours and the spindle phenotypes were analyzed in more detail (FIG. 2E). […] To assess the affect of C75 on centrosomes, HeLa cells were treated with C75 or nocodazole (a drug that causes microtubule depolymerization as a control) for a short period of time (5 minutes), then the drugs were removed and the cells were analyzed for spindle phenotypes (schematic in FIG. 2G). […]

The next test has as its system HeLa cells. Described as above. Format: cell-based, human. The following applies: 300 nM for 4 hours.
Description: as §1, §2

For another test, the system named is HFF1 cells. In words: Percentage of mitotic cells, paclitaxel +/- C75. The conditions noted are these: 200 nM C75 + paclitaxel. Format: cell-based. The protocol:
FIG. 3A) is a line graph showing cytotoxicity of HeLa cells after treatment with varying concentrations of C75+/−a subthreshold dose of paclitaxel (Taxol™; 3 nM). The IC50 is shown by the dotted line. Bars show standard deviation. FIG. 3B) is a line graph showing the percentage of mitotic HeLa or HFF1 cells treated with a range of paclitaxel concentrations+/−C75 as indicated. The bars indicate standard deviation. FIG. 3C) is a series of bar graphs showing the proportion of HCT 116 cells with bipolar aligned (grey), bipolar misaligned (dark grey), multipolar/fragmented (light grey, top portion of each bar) or monopolar (black) spindles 7 hours after treatment with control (DMSO), varying concentrations of paclitaxel or C75, or both as indicated (n=691; N=3). The bars show standard deviation. The combination treatments were compared to paclitaxel and C75 on their own by calculating ratios varying from the predicted ratio, and found to synergize at 100 and 200 nM. FIG. 3D) is bar graph showing the average distance between centrosome fragments in HCT116 cells after treatments as shown. While centrosome fragments moved closer together with increased concentrations of paclitaxel, they moved further apart with increased concentrations of C75 (n=105; N=3). […]

Test [1] has as its target T1, GFP-tagged ch-TOG (CKAP5) (Homo sapiens, UniProt Q14008).
T1 construct: expressed in transfected cells; host or cells: HeLa
The test can be described thus: GFP-tagged ch-TOG localization. Format: cell-based. The conditions noted are these: mitotic HeLa cells vs non-treated. As for the experimental part: As shown in FIG. 2L and FIG. 6, in HeLa cells expressing SiR-tubulin or GFP-tagged ch-TOG (CKAP5), which localizes to centrosomes, the addition of 100-300 nM of C75 causes the spindle poles to collapse together in metaphase cells within 1-2 minutes. The spindles recover, but become uneven or multipolar.
ch-TOG contains multiple TOG domains that bind to tubulin dimers, and a microtubule-binding domain that binds to the microtubule lattice. If C75 were to bind and inhibit one or more of the TOG domains, this would shift its affinity onto microtubules, while inhibiting the microtubule domain would cause ch-TOG to become cytosolic.

T1 sequence (Q14008 whole entry): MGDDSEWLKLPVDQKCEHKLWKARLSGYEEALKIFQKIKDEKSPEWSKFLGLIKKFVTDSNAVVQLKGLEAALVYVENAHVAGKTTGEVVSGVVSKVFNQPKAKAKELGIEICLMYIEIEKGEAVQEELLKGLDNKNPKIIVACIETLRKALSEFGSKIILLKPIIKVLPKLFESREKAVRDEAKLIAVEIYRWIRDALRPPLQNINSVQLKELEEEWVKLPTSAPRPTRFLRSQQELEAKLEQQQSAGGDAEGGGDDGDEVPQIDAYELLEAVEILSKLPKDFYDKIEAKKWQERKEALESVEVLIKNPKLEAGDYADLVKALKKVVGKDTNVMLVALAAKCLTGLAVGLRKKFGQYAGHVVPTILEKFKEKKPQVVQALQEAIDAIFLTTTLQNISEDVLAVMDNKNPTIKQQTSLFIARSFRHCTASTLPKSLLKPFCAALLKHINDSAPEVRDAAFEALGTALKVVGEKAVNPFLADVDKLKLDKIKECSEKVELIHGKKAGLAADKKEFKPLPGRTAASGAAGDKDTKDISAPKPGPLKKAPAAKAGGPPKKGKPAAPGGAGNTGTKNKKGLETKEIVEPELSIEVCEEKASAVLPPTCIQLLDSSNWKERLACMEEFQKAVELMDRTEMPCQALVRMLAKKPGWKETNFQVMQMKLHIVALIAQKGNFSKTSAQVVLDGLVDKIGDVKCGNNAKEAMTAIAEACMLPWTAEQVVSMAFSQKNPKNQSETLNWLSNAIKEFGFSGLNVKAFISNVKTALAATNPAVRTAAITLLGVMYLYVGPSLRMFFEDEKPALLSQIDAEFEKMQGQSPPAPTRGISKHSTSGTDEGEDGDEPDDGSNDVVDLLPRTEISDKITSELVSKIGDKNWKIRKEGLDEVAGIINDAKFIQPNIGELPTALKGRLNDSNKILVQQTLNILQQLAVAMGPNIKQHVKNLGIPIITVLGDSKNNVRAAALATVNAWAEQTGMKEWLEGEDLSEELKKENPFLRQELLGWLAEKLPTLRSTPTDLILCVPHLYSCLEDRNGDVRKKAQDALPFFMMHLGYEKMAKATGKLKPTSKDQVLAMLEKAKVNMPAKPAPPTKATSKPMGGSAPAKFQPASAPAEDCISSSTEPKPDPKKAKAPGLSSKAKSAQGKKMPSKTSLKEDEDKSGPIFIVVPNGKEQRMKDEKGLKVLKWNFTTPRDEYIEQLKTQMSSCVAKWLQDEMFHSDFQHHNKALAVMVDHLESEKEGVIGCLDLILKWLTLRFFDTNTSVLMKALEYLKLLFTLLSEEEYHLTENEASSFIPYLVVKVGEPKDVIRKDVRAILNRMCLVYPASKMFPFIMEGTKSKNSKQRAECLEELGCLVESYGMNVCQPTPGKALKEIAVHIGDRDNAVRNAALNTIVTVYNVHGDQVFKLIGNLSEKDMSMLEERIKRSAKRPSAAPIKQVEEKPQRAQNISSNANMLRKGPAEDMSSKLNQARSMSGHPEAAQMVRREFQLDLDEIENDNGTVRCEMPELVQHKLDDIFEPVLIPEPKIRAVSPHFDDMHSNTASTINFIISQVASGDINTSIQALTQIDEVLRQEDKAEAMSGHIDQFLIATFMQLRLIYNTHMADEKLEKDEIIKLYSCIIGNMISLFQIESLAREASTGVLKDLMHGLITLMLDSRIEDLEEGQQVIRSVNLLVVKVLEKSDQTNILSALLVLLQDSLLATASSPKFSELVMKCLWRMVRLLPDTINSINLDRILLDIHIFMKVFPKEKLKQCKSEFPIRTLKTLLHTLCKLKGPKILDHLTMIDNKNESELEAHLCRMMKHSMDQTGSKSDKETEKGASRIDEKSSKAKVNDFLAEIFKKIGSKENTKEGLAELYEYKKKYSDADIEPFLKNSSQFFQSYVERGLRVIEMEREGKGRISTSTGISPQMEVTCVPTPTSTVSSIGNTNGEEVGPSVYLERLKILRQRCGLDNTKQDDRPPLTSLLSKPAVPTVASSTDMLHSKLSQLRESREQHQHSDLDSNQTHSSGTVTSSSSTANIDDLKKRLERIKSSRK

Consider `COc1ccc(S(=O)(=O)N2Cc3ccccc3-c3sc(Br)cc32)cc1` [Compound C75], for which the “cells with bipolar spindles with misaligned chromosomes” value in the test on A549 cells was determined as 17%; with HeLa cells, 41%. The “cells with multipolar or fragmented spindles” value with A549 cells is 78%; with HeLa cells, 31%. Besides, the “effect on non-cancerous cells treated with paclitaxel” value in the test with HFF1 cells is on record as “protective effect”. In addition, the “ch-TOG localization after treatment” value in test [1] is recorded as “enriched at the centrosomes”.
